Like-named read-outs stand apart in the source and are kept apart here.
Columns and labels:
U87MG gliomablastoma [1] = format: in vivo, mouse; settings: 60 min dynamic images; n = 3
Procedure: (§1) 37 °C in a humidified atmosphere containing 5% CO 2 in Dulbecco’s Modified Eagle Medium (DMEM, high glucose) supplemented with 10% fetal bovine serum. Each male BALB/ c nude mouse wa s injected subcutane ously in the right foreleg with about 2 × 10^6 U87MG cells. At 4-5 week after inoculation, when the tumors reached about 0.5 cm in diameter, the mice were used for PET/CT imaging studies.
(§2) MicroPET/CT imaging with 18F-DBP OF-c(RGDyk)
(§3) Glioblastoma tumor mice were employed in microPET/CT imaging (n = 3) with 18F-DBPOF-c(RGDyk). Anesthetization was con ducted with 2.5% isoflurane during preparation and 1.5% during scans. 10 min dynamic microPET-CT scans were acquired by an Inveon microPET/CT (Siemens, Germany) 20 min post i.v. injection of 18F-DBPOF-c(RGDyk) (100 µL, 100 µCi). Reconstruction of PET images was performed with 3D OPMAP algorithm.
In order to study the specific tumor uptake, mice were pre-blocked by injection of 10 µmol DBPOF-c(RGDyk) 30 min prior to injection of 18F-DBPOF-c(RGDyk) as the control group. Then 60 min dynamic images were acquired to provide a control group […]
while the average tumor uptake SUV in the blocked mice was only 0.32~1.12. The tumor uptake of unblocked mice is 1. 39~2. 51 times higher than blocked mice . The tumor was clearly observable whereas blocked mice had much less tumor uptake as indicated in Supplementary Figure 13. […]

[2] = Log D of 18F-DBPOF-c(RGDyk), 1-octanol/PBS; format: physicochemical; settings: shake-flask, pre-saturated 1-octanol/PBS pH 7.4; 2.0 mL each; four tubes; shaken 10 min, centrifuged 5 min; γ counter, decay-corrected
Procedure: = 7.4) system to estimate the hydrophobicity changes between c(RGDyk) and 18F-DBP OF-c(RGDyk) that may influence biological function of c(RGDyk).
1-Octanol (2.0 mL) and phosphate buffer (2.0 mL) were pipetted into four 12 mL test tubes containing […] of radiotracer. The test tubes were stoppered, mechanic ally shaken for 10 min, and centrifuged (5 min). From each tube, approximately 0.5 mL of buffer was transferred into a pre -weighed test tube for counting. The remaining buffer was discarded and approximately 0.5 mL of octanol phase was also transferred int o a separate pre-weighed test tube. The amount of radioactivity in each tube was measured by a γ counter and corrected for decay. Accurate volumes of each counted phase were determined by weight differences and known densities. The partition coefficient was calculated using Supplementary Equation 1:
Log D = Counts/m L in buffer = -0.59 ± 0.09 1 […]
Photosensitizers were added at concentrations 0, 0.01, 0.05, 0.1, 0.5, 1 and 5 mM. The cell cytotoxic effect on the U87MG cells were determined using the CCK8 assay.
After 12 h and 24 h of incubation after the treatment we added 10 µL of CCK8 and incubated the cells for another 1 h at 37 °C and in 5% CO2. The measurement of absorbance was carried out on a 96-well microplate reader Synergy HT at 450 nm. […]

U87MG gliomablastoma [3] = format: in vivo, mouse; settings: for Tumor-SUVbw: unblocked, mean n=3
Procedure: as §1, §2
as §3, with “algorithm. […]” for “algorithm.”
39~2. 51 times higher than blocked mice . The tumor was clearly observable whereas blocked mice had much less tumor uptake as indicated in Supplementary Figure 13. […]

For “^18F-DBPOF-c(RGDyk) (head to tail) [18F-labeled peptide ligand, targets the integrin αvβ3 receptor of the U87MG cell]”, the “average tumor uptake SUV in the blocked mice” value (U87MG gliomablastoma [1]) was 0.32~1.12, the “Log D” value [2] was -0.59 ± 0.09 and the Tumor-SUVbw (U87MG gliomablastoma [3]; 21 min) was 0.5941. It also gave a Tumor-SUVbw (U87MG gliomablastoma [3]; 22 min) of 0.4485, a Tumor-SUVbw (U87MG gliomablastoma [3]; 23 min) of 0.7452 and a Tumor-SUVbw (U87MG gliomablastoma [3]; 24 min) of 0.761. For the same substance, the Tumor-SUVbw (U87MG gliomablastoma [3]; 25 min) was 0.4755, the Tumor-SUVbw (U87MG gliomablastoma [3]; 26 min) was 0.5271 and the Tumor-SUVbw (U87MG gliomablastoma [3]; 27 min) was 0.4212. It also gave a Tumor-SUVbw (U87MG gliomablastoma [3]; 28 min) of 0.5137, a Tumor-SUVbw (U87MG gliomablastoma [3]; 29 min) of 0.5036 and a Tumor-SUVbw (U87MG gliomablastoma [3]; 30 min) of 0.6269. The “uptake, standardized uptake value (SUV) in U87MG gliomablastoma” value (U87MG gliomablastoma [3]; microPET/CT, 100 µCi i.v., dynamic scan from 20 min post injection) was 0.76 and the “target to non-target ratio” value (U87MG gliomablastoma [3]; microPET/CT, U87MG gliomablastoma) was 2.4.

— paper PMC6397219, “Rapid one-step ^18F-radiolabeling of biomolecules in aqueous media by organophosphine fluoride acceptors” (Nature Communications, 2019)
